Measurements from US20150166524A1, “CRYSTALLINE FORM OF MASITINIB” (SANDOZ AG, priority 2013, published 2015).
One block for each substance: values may come before it.

Key:
[1] = cited from earlier work; for polymorphic conversion: DRX2: upon temperature increase, DRX3: outside dry conditions
[2] = Dynamic Vapour Sorption (DVS) hygroscopicity; format: physicochemical
Protocol: Dynamic Vapour Sorption (DVS) was performed using a Hiden Analytical Instruments IGAsorp Vapour Sorption Balance. Approximately 30 mg of sample was placed into a wire-mesh vapour sorption balance pan, loaded into the IGAsorp vapour sorption balance and held at 25° C.±0.1° C. The sample was subjected to a step profile from 40% RH to 90% RH at 10% increments, followed by desorption from 90% RH to 0% RH at 10% increments and a second adsoriotn cycle from 0% RH to 90% RH. The equilibrium criterion was set to 99.0% step completion within a minimum of 60 minutes and a maximum of 5 hours for each increment. The weight change during the sorption cycle was monitored, allowing for the hygroscopic nature of the sample to be determined. The data collection interval was in seconds.
The hygrosopicity of masitinib mesylate form H as obtained from example 2 was assessed by DVS. The DVS isotherm was initiated at 40% r.h. and increased to 70% r.h. The weight gain in this relative humidity interval was below 0.27% (w/w).

[3] = cited from earlier work
[4] = Behaviour on heating by TG/DTA; format: physicochemical; conditions: lost small amounts of water
Protocol: Thermogravimetric analyses were carried out on a Mettler Toledo TGA/DSC1 STARe. The calibration standards were indium and tin. Samples were placed in an aluminium sample pan, inserted into the TG furnace and accurately weighed. The heat flow signal was stabilised for one minute at 30° C., prior to heating to 270° C. in a stream of nitrogen at a rate of 10° C./minute.
Masitinib mesylate (25 mg) was charged into a scintillation vial followed by methanol (containing small amounts of water; 1.0 mL). The suspension was then heated until the masitinib mesylate had dissolved. The masitinib mesylate solution in methanol was then allowed to slowly cool to room temperature. The crystals which formed were then harvested by filtration and analyzed by XRPD and TG/DTA.

[5] = as described in response to the eESR

Substance: masitinib mesylate [DRX2]
polymorphic conversion [1]: slowly, but fully, converts to DRX1
polymorphic stability [1, 5]: stable only at 25 °C

weight gain in relative humidity interval (DVS) ([2]; DVS isotherm from 40% r.h. to 70% r.h., form H from example 2): below 0.27 % (w/w)
water absorbed (DVS) ([2]; interval of relative humidity between 40% and 70% r.h.): less than 0.5 weight %
Substance: Masitinib mesylate [form H]
hygroscopicity compared with form I ([2]; DVS): less hygroscopic than masitinib mesylate form I

Substance: Masitinib mesylate [crystal form I]
behaviour at 80% relative humidity ([3]; 80% relative humidity): remains dry
thermodynamic stability ([3]; at temperatures below 200° C.): thermodynamically stable
hygroscopicity [1, 5]: mildly hygroscopic

Substance: masitinib mesylate [Comparative Example]
polymorphic conversion upon heating [4]: converted to masitinib mesylate crystal form I upon heating

Substance: masitinib mesylate [DRX3]
polymorphic conversion [1]: quickly converts to DRX2
polymorphic stability [1, 5]: stable under dry conditions only
